According to patent publication US11306092B2, “Amino indole compounds useful as TLR inhibitors” (BRISTOL-MYERS SQUIBB COMPANY, priority 2017, dated 2022):

What was measured:
Assay type in all cases: cell-based
human TLR7 = biological target: T1, human TLR7 (Homo sapiens, UniProt Q9NYK1); assay: TLR7 inhibition reporter assay (HEK-Blue SEAP reporter); details: HEK-Blue cells overexpressing human TLR7; gardiquimod 7.5 μM; 22 hour incubation
T1 construct: host or cells: HEK-Blue cells
T1 sequence (Q9NYK1 27-1049): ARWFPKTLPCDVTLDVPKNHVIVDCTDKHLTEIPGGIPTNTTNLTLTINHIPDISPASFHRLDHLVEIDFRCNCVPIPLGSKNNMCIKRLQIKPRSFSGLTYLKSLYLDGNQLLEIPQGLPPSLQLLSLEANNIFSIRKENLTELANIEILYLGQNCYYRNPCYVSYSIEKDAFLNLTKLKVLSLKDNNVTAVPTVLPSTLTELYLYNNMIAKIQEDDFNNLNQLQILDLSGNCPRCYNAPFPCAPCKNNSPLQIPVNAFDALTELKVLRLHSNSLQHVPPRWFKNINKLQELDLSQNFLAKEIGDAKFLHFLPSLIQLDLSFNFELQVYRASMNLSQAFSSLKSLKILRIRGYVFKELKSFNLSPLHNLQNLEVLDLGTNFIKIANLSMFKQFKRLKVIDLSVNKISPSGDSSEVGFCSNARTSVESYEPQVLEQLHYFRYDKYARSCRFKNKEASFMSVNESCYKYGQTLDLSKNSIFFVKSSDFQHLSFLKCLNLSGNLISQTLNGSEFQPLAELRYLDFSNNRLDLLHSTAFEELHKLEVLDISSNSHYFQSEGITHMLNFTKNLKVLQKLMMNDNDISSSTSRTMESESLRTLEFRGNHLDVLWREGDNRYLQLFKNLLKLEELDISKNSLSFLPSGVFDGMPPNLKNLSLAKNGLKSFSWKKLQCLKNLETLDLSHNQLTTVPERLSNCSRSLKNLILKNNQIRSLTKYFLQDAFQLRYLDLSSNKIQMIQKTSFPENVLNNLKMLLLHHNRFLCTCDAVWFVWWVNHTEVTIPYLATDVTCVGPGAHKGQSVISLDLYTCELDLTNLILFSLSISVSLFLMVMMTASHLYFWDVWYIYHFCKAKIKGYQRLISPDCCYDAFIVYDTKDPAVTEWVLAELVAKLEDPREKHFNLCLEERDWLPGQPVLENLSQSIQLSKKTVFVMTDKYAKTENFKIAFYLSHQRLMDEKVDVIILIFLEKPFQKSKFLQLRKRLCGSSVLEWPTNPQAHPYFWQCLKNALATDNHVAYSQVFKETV
In short: (§1)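 Compound treatment: 30 min, RT, 0.05 nM–50 μM final. Agonist: TLR7 gardiquimod 7.5 μM; TLR8 R848 15.9 μM; TLR9 ODN2006 5 nM. Incubation 22 h, 37 °C, 5% CO2. Readout SEAP, HEK-Blue Detection.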

human TLR9 = biological target: T2, human TLR9 (Homo sapiens, UniProt Q9NR96); assay: TLR9 inhibition reporter assay (HEK-Blue SEAP reporter); details: HEK-Blue cells overexpressing human TLR9; ODN2006 5 nM; 22 hour incubation
T2 construct: host or cells: HEK-Blue cells
T2 sequence (Q9NR96 26-1032): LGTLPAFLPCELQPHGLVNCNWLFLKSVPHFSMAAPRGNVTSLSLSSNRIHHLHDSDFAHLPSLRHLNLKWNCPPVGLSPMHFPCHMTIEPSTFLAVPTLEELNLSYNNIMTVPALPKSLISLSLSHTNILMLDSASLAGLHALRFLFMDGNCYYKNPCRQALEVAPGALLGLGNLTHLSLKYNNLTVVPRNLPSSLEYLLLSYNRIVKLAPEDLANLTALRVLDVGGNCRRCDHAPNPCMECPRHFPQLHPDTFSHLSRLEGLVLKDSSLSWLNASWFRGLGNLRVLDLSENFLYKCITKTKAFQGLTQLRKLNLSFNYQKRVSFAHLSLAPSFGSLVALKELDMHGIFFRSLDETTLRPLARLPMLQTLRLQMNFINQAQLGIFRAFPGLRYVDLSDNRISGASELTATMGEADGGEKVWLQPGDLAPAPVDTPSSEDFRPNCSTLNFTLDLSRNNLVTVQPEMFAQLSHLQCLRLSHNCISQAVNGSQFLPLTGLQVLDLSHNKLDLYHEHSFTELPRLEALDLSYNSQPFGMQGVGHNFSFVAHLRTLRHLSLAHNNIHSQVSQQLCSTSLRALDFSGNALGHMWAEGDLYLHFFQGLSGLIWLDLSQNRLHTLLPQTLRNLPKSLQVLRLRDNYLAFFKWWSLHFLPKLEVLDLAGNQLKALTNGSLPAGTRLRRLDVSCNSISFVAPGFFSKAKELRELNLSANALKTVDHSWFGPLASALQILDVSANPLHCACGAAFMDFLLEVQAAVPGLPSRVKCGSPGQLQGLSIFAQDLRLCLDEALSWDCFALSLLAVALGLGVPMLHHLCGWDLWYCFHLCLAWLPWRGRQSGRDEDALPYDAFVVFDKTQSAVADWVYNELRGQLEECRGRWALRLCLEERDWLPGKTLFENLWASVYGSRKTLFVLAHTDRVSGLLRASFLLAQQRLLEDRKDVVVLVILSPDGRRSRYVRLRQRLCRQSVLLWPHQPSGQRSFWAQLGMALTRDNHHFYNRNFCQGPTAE
In short: as §1

human TLR8 = biological target: T3, human TLR8 (Homo sapiens, UniProt Q9NR97); assay: TLR8 inhibition reporter assay (HEK-Blue SEAP reporter); details: HEK-Blue cells overexpressing human TLR8; R848 15.9 μM; 22 hour incubation
T3 construct: host or cells: HEK-Blue cells
T3 sequence (Q9NR97 27-1041): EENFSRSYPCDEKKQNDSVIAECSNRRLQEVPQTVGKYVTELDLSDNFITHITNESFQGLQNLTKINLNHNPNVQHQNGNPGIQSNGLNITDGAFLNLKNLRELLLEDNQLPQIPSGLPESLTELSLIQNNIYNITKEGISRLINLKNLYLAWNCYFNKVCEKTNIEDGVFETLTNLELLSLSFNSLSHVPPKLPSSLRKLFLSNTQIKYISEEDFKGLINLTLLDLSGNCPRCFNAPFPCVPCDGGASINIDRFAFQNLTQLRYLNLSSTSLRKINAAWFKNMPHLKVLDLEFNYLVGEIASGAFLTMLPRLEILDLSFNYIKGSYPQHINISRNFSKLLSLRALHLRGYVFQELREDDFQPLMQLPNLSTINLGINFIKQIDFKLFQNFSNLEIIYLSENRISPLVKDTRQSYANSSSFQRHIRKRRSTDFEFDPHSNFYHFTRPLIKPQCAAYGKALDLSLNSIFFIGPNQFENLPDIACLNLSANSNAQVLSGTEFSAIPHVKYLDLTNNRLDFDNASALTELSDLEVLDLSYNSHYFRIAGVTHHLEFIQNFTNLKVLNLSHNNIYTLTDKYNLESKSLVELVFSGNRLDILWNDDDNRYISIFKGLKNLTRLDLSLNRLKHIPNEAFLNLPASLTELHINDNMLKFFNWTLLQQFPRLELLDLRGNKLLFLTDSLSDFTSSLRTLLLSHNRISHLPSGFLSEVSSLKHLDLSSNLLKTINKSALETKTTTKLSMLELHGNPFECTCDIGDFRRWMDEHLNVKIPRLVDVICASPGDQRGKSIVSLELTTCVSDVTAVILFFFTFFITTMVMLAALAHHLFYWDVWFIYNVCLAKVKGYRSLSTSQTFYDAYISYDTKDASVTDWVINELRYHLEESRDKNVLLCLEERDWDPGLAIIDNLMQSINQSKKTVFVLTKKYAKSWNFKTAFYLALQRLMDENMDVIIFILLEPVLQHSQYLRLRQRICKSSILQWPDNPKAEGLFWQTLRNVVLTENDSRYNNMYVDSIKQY
In short: as §1

COc1ccc(-c2[nH]c3ccc(N4CCC(N5CCN(C(C)C)CC5)CC4)cc3c2C(C)C)cc1OC [Example 85, 2-(3,4-dimethoxyphenyl)-3-isopropyl-5-(4-(4-isopropylpiperazin-1-yl)piperidin-1-yl)-1H-indole]
IC50 (human TLR7): 23 nM
IC50 (human TLR9): 637 nM
IC50 (human TLR8): 16 nM

CC(C)c1c(-c2ccnc3[nH]ncc23)[nH]c2ccc(NC(=O)[C@H]3CCNC3)cc12 [Example 10, (S)—N-(3-isopropyl-2-(1H-pyrazolo[3,4-b]pyridin-4-yl)-1H-indol-5-yl)pyrrolidine-3-carboxamide]
IC50 (human TLR7): 73 nM
IC50 (human TLR9): 7720 nM
IC50 (human TLR8): 96 nM

CCc1c(-c2ccnc3[nH]ccc23)[nH]c2ccc(N3CCN(C4CCN(C(C)C)CC4)CC3)cc12 [Example 157, 4-(3-ethyl-5-(4-(1-isopropylpiperidin-4-yl)piperazin-1-yl)-1H-indol-2-yl)-1H-pyrrolo[2,3-b]pyridine]
IC50 (human TLR7): 4230 nM
IC50 (human TLR9): 559 nM
IC50 (human TLR8): 635 nM

COc1ccc(-c2[nH]c3ccc(N4CCC(N5CCN(C(C)(C)C)CC5)CC4)cc3c2C(C)C)cc1OC [Example 90, 5-(4-(4-(tert-butyl)piperazin-1-yl)piperidin-1-yl)-2-(3,4-dimethoxyphenyl)-3-isopropyl-1H-indole]
IC50 (human TLR7): 37 nM
IC50 (human TLR9): 809 nM
IC50 (human TLR8): 19 nM

Cc1cc2[nH]c(-c3ccnc4[nH]ncc34)c(C(C)C)c2cc1N1CCN(C2CCN(C(C)C)CC2)CC1 [Example 175, 4-(3-isopropyl-5-(4-(1-isopropylpiperidin-4-yl)piperazin-1-yl)-6-methyl-1H-indol-2-yl)-1H-pyrazolo[3,4-b]pyridine]
IC50 (human TLR7): 7.5 nM
IC50 (human TLR9): 261 nM
IC50 (human TLR8): 11 nM

COc1ccc(-c2[nH]c3ccc(N4CCC(NC5CCN(C(C)C)CC5)CC4)cc3c2C(C)C)cc1OC [Example 192, 1-(2-(3,4-dimethoxyphenyl)-3-isopropyl-1H-indol-5-yl)-N-(1-isopropylpiperidin-4-yl)piperidin-4-amine]
IC50 (human TLR7): 36 nM
IC50 (human TLR9): 322 nM
IC50 (human TLR8): 7.7 nM

CCc1c(-c2ccc(OC)c(OC)c2)[nH]c2ccc(N3CCC4(CC3)CCN(C(C)C)CC4)cc12 [Example 183, 3-(2-(3,4-dimethoxyphenyl)-3-ethyl-1H-indol-5-yl)-9-isopropyl-3,9-diazaspiro[5.5]undecane]
IC50 (human TLR7): 95 nM
IC50 (human TLR9): 672 nM
IC50 (human TLR8): 59 nM

CCc1c(-c2ccc(OC)c(OC)c2)[nH]c2cc(C(C)C)c(N3CCN(C4CCN(C(C)C)CC4)CC3)cc12 [Example 69, 2-(3,4-dimethoxyphenyl)-3-ethyl-6-isopropyl-5-(4-(1-isopropylpiperidin-4-yl)piperazin-1-yl)-1H-indole]
IC50 (human TLR7): 1160 nM
IC50 (human TLR9): 2610 nM
IC50 (human TLR8): 14300 nM

CCc1c(-c2ccc(OC)c(OC)c2)[nH]c2ccc(N3CCN(C4CCN(CC(C)C)CC4)CC3)cc12 [Example 177, 2-(3,4-dimethoxyphenyl)-3-ethyl-5-(4-(1-isobutylpiperidin-4-yl)piperazin-1-yl)-1H-indole]
IC50 (human TLR7): 166 nM
IC50 (human TLR9): 1540 nM
IC50 (human TLR8): 11 nM

COc1ccc(-c2[nH]c3ccc(N4CCN(C5CCN(C(C)C)CC5)CC4)cc3c2C)cc1OC [Example 164, 2-(3,4-dimethoxyphenyl)-5-(4-(1-isopropylpiperidin-4-yl)piperazin-1-yl)-3-methyl-1H-indole]
IC50 (human TLR7): 7090 nM
IC50 (human TLR9): 577 nM
IC50 (human TLR8): > 50000 nM

COc1ccc(-c2[nH]c3ccc(N4CCC(C(C)(C)O)CC4)cc3c2C(C)C)cc1OC [Example 110, 2-(1-(2-(3,4-dimethoxyphenyl)-3-isopropyl-1H-indol-5-yl)piperidin-4-yl)propan-2-ol]
IC50 (human TLR7): 194 nM
IC50 (human TLR9): 29500 nM
IC50 (human TLR8): 328 nM

COc1ccc(-c2[nH]c3ccc(N4CCC(N5CCNCC5)CC4)cc3c2C(C)C)cc1OC [Example 73, 2-(3,4-dimethoxyphenyl)-3-isopropyl-5-(4-(piperazin-1-yl)piperidin-1-yl)-1H-indole]
IC50 (human TLR7): 63 nM
IC50 (human TLR9): 2110 nM
IC50 (human TLR8): 65 nM
